Test results published in patent US8426202B2, “Cell culture medium” (Cellca GmbH, priority 2005, dated 2013).
Values joined by “and” are separate entries in the source; they are usually repeats but may differ in a detail not shown here. Identical values can stand only once.

Legend:
[1] = tested on: CHO cell line that expresses an antibody; experiment: Batch experiment with the substances according to the invention (Example 1); assay type: cell-based, Chinese hamster; conditions: batch mode, substance 0.5-1 g/l, basal medium glucose 4.7 g/l, glutamine […]
Procedure: Cells were stored in the gas phase of liquid nitrogen. One to two ampoules were thawed in nutrient medium preheated to 37° C. and transferred to spinner bottles, shaking flasks or T-bottles. In the first few days of cultivation the medium was changed, depending on the clone.
Depending on the clone, cells were split either every second day or every third day or after two and three days alternately into new medium, i.e. a portion of the cell suspension was removed from culture and a smaller portion of the cell suspension was reused as inoculum for the next culture. This inoculum was made up with fresh prewarmed nutrient medium. Cells were incubated at 37° C. in an incubator with a CO2 atmosphere. An alternative for incubating cells was cultivation in an incubation chamber at 37° C., in this way cells were held in culture for several passages. A passage means a cultivation time of two to three days. At various points of time, cell suspension was taken from strain maintenance and used as inoculum for experiments. The experiments were carried out in various cultivation systems, for example in spinner bottles, T-bottles, shaking flasks, culture tubes or in controlled bioreactors.
(§1) Feed took place at regular intervals.

[2] = tested on: CHO cell line that expresses an antibody; experiment: Fed-batch experiment with the substances according to the invention (Example 2, Table 2); assay type: cell-based, Chinese hamster; design: Viabil.: concentration or dose not given beside the values
Excerpt: as §1

O=C(O)C(O)C(O)C(=O)O (centres unmarked) [Tartaric acid]
Gln ([1]; day 0): 1.53 mM
Glucose ([1]; day 0): 4.69 g/L
Lactate ([1]; day 0): 0 g/L
NH4 ([1]; day 0): 1.22 mM
Specific Glutamin consumption (Gln/VCD) ([1]; day 0): 1.49
Specific ammonia production (NH4/VCD) ([1]; day 0): 1.18
Specific glucose consumption (Gluc/VCD) ([1]; day 0): 4.55
Specific lactate production (Lac/VCD) ([1]; day 0): 0.00
Total Cell Density TCD ([1]; day 0): 1.07 E5/ml
Viabil. ([1]; day 0): 96%
Viable Cell Density (VCD) ([1]; day 0): 1.03 E5/ml
Gln ([1]; day 3): 0.9 mM
Glucose ([1]; day 3): 4.53 g/L
Lactate ([1]; day 3): 0.41 g/L
NH4 ([1]; day 3): 1.84 mM
Specific Glutamin consumption (Gln/VCD) ([1]; day 3): 0.17
Specific ammonia production (NH4/VCD) ([1]; day 3): 0.34
Specific glucose consumption (Gluc/VCD) ([1]; day 3): 0.84
Specific lactate production (Lac/VCD) ([1]; day 3): 0.08
Total Cell Density TCD ([1]; day 3): 5.5 E5/ml
Viabil. ([1]; day 3): 98%
Viable Cell Density (VCD) ([1]; day 3): 5.4 E5/ml
Gln ([1]; day 6): 0.19 mM
Glucose ([1]; day 6): 3.56 g/L
Lactate ([1]; day 6): 0.6 g/L
NH4 ([1]; day 6): 2.89 mM
Specific Glutamin consumption (Gln/VCD) ([1]; day 6): 0.00
Specific ammonia production (NH4/VCD) ([1]; day 6): 0.07
Specific glucose consumption (Gluc/VCD) ([1]; day 6): 0.09
Specific lactate production (Lac/VCD) ([1]; day 6): 0.02
Total Cell Density TCD ([1]; day 6): 41.3 E5/ml
Viabil. ([1]; day 6): 97%
Viable Cell Density (VCD) ([1]; day 6): 40 E5/ml
Gln ([1]; day 8): 0.27 mM
Glucose ([1]; day 8): 2.65 g/L
Lactate ([1]; day 8): 0.64 g/L
NH4 ([1]; day 8): 3.42 mM
Specific Glutamin consumption (Gln/VCD) ([1]; day 8): 0.03
Specific ammonia production (NH4/VCD) ([1]; day 8): 0.33
Specific glucose consumption (Gluc/VCD) ([1]; day 8): 0.25
Specific lactate production (Lac/VCD) ([1]; day 8): 0.06
Total Cell Density TCD ([1]; day 8): 12.1 E5/ml
Viabil. ([1]; day 8): 87%
Viable Cell Density (VCD) ([1]; day 8): 10.5 E5/ml
Gln ([1]; day 11): 0.42 mM
Glucose ([1]; day 11): 1.71 g/L
Lactate ([1]; day 11): 0.79 g/L
NH4 ([1]; day 11): 3.87 mM
Specific Glutamin consumption (Gln/VCD) ([1]; day 11): 0.05
Specific ammonia production (NH4/VCD) ([1]; day 11): 0.44
Specific glucose consumption (Gluc/VCD) ([1]; day 11): 0.20
Specific lactate production (Lac/VCD) ([1]; day 11): 0.09
Total Cell Density TCD ([1]; day 11): 18 E5/ml
Viabil. ([1]; day 11): 48%
Viable Cell Density (VCD) ([1]; day 11): 8.7 E5/ml
Total Cell Density TCD ([2]; day 0, fed-batch): 1.5 E5/ml
Viabil. ([2]; day 0, fed-batch): 91%
Viable Cell Density (VCD) ([2]; day 0, fed-batch): 1.37 E5/ml
Total Cell Density TCD ([2]; day 2, fed-batch): 4 E5/ml and 3.9 E5/ml
Viabil. ([2]; day 2, fed-batch): 98% and 97%
Viable Cell Density (VCD) ([2]; day 2, fed-batch): 3.9 E5/ml and 3.8 E5/ml
Total Cell Density TCD ([2]; day 5, fed-batch): 10.4 E5/ml and 9.6 E5/ml
Viabil. ([2]; day 5, fed-batch): 93% and 95%
Viable Cell Density (VCD) ([2]; day 5, fed-batch): 9.7 E5/ml and 9.1 E5/ml
Total Cell Density TCD ([2]; day 8, fed-batch): 26.6 E5/ml and 27.7 E5/ml
Viabil. ([2]; day 8, fed-batch): 89% and 90%
Viable Cell Density (VCD) ([2]; day 8, fed-batch): 23.7 E5/ml and 25 E5/ml

NC(=O)NCCC[C@H](N)C(=O)O [Citrulline]
Gln ([1]; day 0): 1.53 mM
Glucose ([1]; day 0): 4.69 g/L
Lactate ([1]; day 0): 0 g/L
NH4 ([1]; day 0): 1.22 mM
Specific Glutamin consumption (Gln/VCD) ([1]; day 0): 1.49
Specific ammonia production (NH4/VCD) ([1]; day 0): 1.18
Specific glucose consumption (Gluc/VCD) ([1]; day 0): 4.55
Specific lactate production (Lac/VCD) ([1]; day 0): 0.00
Total Cell Density TCD ([1]; day 0): 1.07 E5/ml
Viabil. ([1]; day 0): 96%
Viable Cell Density (VCD) ([1]; day 0): 1.03 E5/ml
Gln ([1]; day 3): 0.82 mM
Glucose ([1]; day 3): 4.14 g/L
Lactate ([1]; day 3): 0.83 g/L
NH4 ([1]; day 3): 1.87 mM
Specific Glutamin consumption (Gln/VCD) ([1]; day 3): 0.11
Specific ammonia production (NH4/VCD) ([1]; day 3): 0.25
Specific glucose consumption (Gluc/VCD) ([1]; day 3): 0.55
Specific lactate production (Lac/VCD) ([1]; day 3): 0.11
Total Cell Density TCD ([1]; day 3): 7.7 E5/ml
Viabil. ([1]; day 3): 97%
Viable Cell Density (VCD) ([1]; day 3): 7.5 E5/ml
Gln ([1]; day 6): 0.27 mM
Glucose ([1]; day 6): 2.62 g/L
Lactate ([1]; day 6): 1.16 g/L
NH4 ([1]; day 6): 2.66 mM
Specific Glutamin consumption (Gln/VCD) ([1]; day 6): 0.01
Specific ammonia production (NH4/VCD) ([1]; day 6): 0.07
Specific glucose consumption (Gluc/VCD) ([1]; day 6): 0.07
Specific lactate production (Lac/VCD) ([1]; day 6): 0.03
Total Cell Density TCD ([1]; day 6): 39.6 E5/ml
Viabil. ([1]; day 6): 96%
Viable Cell Density (VCD) ([1]; day 6): 37.9 E5/ml
Gln ([1]; day 8): 0.37 mM
Glucose ([1]; day 8): 1.7 g/L
Lactate ([1]; day 8): 1.12 g/L
NH4 ([1]; day 8): 2.86 mM
Specific Glutamin consumption (Gln/VCD) ([1]; day 8): 0.03
Specific ammonia production (NH4/VCD) ([1]; day 8): 0.20
Specific glucose consumption (Gluc/VCD) ([1]; day 8): 0.12
Specific lactate production (Lac/VCD) ([1]; day 8): 0.08
Total Cell Density TCD ([1]; day 8): 17.8 E5/ml
Viabil. ([1]; day 8): 82%
Viable Cell Density (VCD) ([1]; day 8): 14.6 E5/ml
Gln ([1]; day 11): 0.51 mM
Glucose ([1]; day 11): 0.7 g/L
Lactate ([1]; day 11): 1.48 g/L
NH4 ([1]; day 11): 3.26 mM
Specific Glutamin consumption (Gln/VCD) ([1]; day 11): 0.06
Specific ammonia production (NH4/VCD) ([1]; day 11): 0.40
Specific glucose consumption (Gluc/VCD) ([1]; day 11): 0.09
Specific lactate production (Lac/VCD) ([1]; day 11): 0.18
Total Cell Density TCD ([1]; day 11): 21.3 E5/ml
Viabil. ([1]; day 11): 38%
Viable Cell Density (VCD) ([1]; day 11): 8.2 E5/ml
